Results from patent US7811997B2, “Composition containing total triterpenoid sapogenins extracted from bamboo, and the preparation method and use thereof” (priority 2002, dated 2010).
Where two headings read alike, the source gives them in different places.

What was measured:
Format in all cases: cell-based
A375 (human malanoma) = assay: MTT proliferation inhibition, A375 cells; settings: A375 cell; for inhibition at 7.5 µM / inhibition at 15 µM / inhibition at 30 µM / inhibition at 60 µM / inhibition at 120 µM / inhibition at 240 µM / inhibition at 480 µM / inhibition at 960 µM / IC50: Homo sapiens; for inhibition at 7.5 µM: 7.5 μmol/L; for inhibition at 7.5 µM / inhibition at 15 µM / inhibition at 30 µM / inhibition at 60 µM / inhibition at 120 µM / inhibition at 240 µM / inhibition at 480 µM / inhibition at 960 µM: read-out: Inhibitory rate (%); for inhibition at 15 µM: 15 μmol/L; for inhibition at 30 µM: 30 μmol/L; for inhibition at 60 µM: 60 μmol/L; for inhibition at 240 µM: 240 μmol/L; for inhibition at 480 µM: 480 μmol/L; for inhibition at 960 µM: 960 μmol/L; for IC50: A-375, MTT, Bliss method
Text: (§1) The Silica Gel Column Chromatography and Countercurrent Chromatography preparation techniques were used to obtain Friedelin monomer extracted from EZR2002 for the sake of evaluating its anti-tumor activity further. The purity of this monomer determined by GC-MS analysis was 90.5%.
(§2) A375 (human malanoma), L929 (mouse lung epithelial tumor), Hela (human cervical tumor) and THP-1 (human macrophage tumor) cell lines were used for active filtration test in this experiment. Among these cell lines, A375, L929 and Hela were adherent cells while THP-1 was a kind of suspended cell.
(§3) All cells were maintained in the RPMI-1640 culture medium supplemented with 10% fetal calf serum, penicillin (100 U/mL), streptomycin (100 μg/mL) and 0.2% NaHCO3. These supplements were dissolved in deionized water and 0.22 μm filtration membrane was used for filter sterilization. The fetal calf serum was inactivated 30 min at 56° C. prior to an experiment. Cells were cultured in a humidified incubator of 5% CO2 at 37° C.
(§4) A375, L929 and Hela cells in logarithmic growth phases were seeded at a cell density of approximately 5×10^4 cells/mL in 96 pore plates (100 μL/well). Furthermore, THP-1 cell was seeded at a cell density of approximately 1×10^5 cells/mL because it was smaller than others. Samples were added in suspended cells after culturing 4 h and in adherent cells after culturing 12 h. Friedelin was dissolved in DMSO in advance and then in the culture medium with the ultrasonic treatment, where the final concentration of the solvent in the culture medium was <0.1% (v/v). Sample was added for 7.5, 15, 30, 60, 120, 240, 480 and 960 μmol/L. Each level had four parallel pores and a negative control. The cells were incubated for 24 and 48 h and then 15 μL/well MTT solvent (5 mg/mL) was added.
(§5) The cells were incubated for 48 h, followed by centrifugation at 1500 rpm for 5 min. The supernatant was removed and 150 μL/well DMSO was added, followed by micro-vibrator shocking for 10 min and crystal dissolving completely. The absorbance (OD value) was measured by enzyme-labeled meter at 492 nm. Furthermore, the inhibitory rate of cell proliferation and the IC50 value of friedelin were counted by using Bliss method.
(§6) The de-methyl-cantharidin was taken as the positive control and the inhibitory rate of A375, L929 and Hela cells were measured by adding de-methyl-cantharidin (120 μmol/L) for 24 and 48 h (Table 8). Furthermore, the corresponding data of Friedelin were counted.

[1] = system: L929 (mouse lung epithelial tumor); assay: MTT proliferation inhibition, L929 cells; settings: L929 cell; for Inhibitory rate (%) / inhibition at 120 µM: 120 μmol/L; for inhibition at 7.5 µM / inhibition at 15 µM / inhibition at 30 µM / inhibition at 60 µM / inhibition at 120 µM / inhibition at 240 µM / inhibition at 480 µM / inhibition at 960 µM / IC50: Mus musculus; for inhibition at 7.5 µM: 7.5 μmol/L; for inhibition at 7.5 µM / inhibition at 15 µM / inhibition at 30 µM / inhibition at 60 µM / inhibition at 120 µM / inhibition at 240 µM / inhibition at 480 µM / inhibition at 960 µM: read-out: Inhibitory rate (%); for inhibition at 15 µM: 15 μmol/L; for inhibition at 30 µM: 30 μmol/L; for inhibition at 60 µM: 60 μmol/L; for inhibition at 240 µM: 240 μmol/L; for inhibition at 480 µM: 480 μmol/L; for inhibition at 960 µM: 960 μmol/L; for IC50: MTT, Bliss method
Text: as §1, §2, §3, §4, §5, §6

[2] = system: Hela (human cervical tumor); assay: MTT proliferation inhibition, Hela cells; settings: Hela cell; for Inhibitory rate (%) / inhibition at 120 µM: 120 μmol/L; for inhibition at 7.5 µM / inhibition at 15 µM / inhibition at 30 µM / inhibition at 60 µM / inhibition at 120 µM / inhibition at 240 µM / inhibition at 480 µM / inhibition at 960 µM / IC50: Homo sapiens; for inhibition at 7.5 µM / inhibition at 15 µM / inhibition at 30 µM / inhibition at 60 µM / inhibition at 120 µM / inhibition at 240 µM / inhibition at 480 µM / inhibition at 960 µM: HeLa, read-out: Inhibitory rate (%); for inhibition at 7.5 µM: 7.5 μmol/L; for inhibition at 15 µM: 15 μmol/L; for inhibition at 30 µM: 30 μmol/L; for inhibition at 60 µM: 60 μmol/L; for inhibition at 240 µM: 240 μmol/L; for inhibition at 480 µM: 480 μmol/L; for inhibition at 960 µM: 960 μmol/L; for IC50: MTT, Bliss method
Text: as §1, §2, §3, §4, §5, §6

[3] = system: THP-1 (human macrophage tumor); assay: MTT proliferation inhibition, THP-1 cells; settings: THP-1 cell; for inhibition at 7.5 µM: 7.5 μmol/L; for inhibition at 7.5 µM / inhibition at 15 µM / inhibition at 30 µM / inhibition at 60 µM / inhibition at 120 µM / inhibition at 240 µM / inhibition at 480 µM / inhibition at 960 µM: read-out: Inhibitory rate (%); for inhibition at 15 µM: 15 μmol/L; for inhibition at 30 µM: 30 μmol/L; for inhibition at 60 µM: 60 μmol/L; for inhibition at 120 µM: 120 μmol/L; for inhibition at 240 µM: 240 μmol/L; for inhibition at 480 µM: 480 μmol/L; for inhibition at 960 µM: 960 μmol/L; for IC50: MTT, Bliss method
Text: as §1, §2, §3, §4, §5

C[C@H]1C(=O)CC[C@@H]2[C@]1(C)CC[C@H]1[C@@]2(C)CC[C@@]2(C)[C@@H]3CC(C)(C)CC[C@]3(C)CC[C@]12C [Friedelin, friedelin]
Inhibitory rate (%) (A375 (human malanoma); 48 h, 120 μmol/L): 88.6% | inhibition at 7.5 µM (A375 (human malanoma); A-375, 24 h, 24 h): 0% | inhibition at 15 µM (A375 (human malanoma); A-375, 24 h, 24 h): 6.43% | inhibition at 30 µM (A375 (human malanoma); A-375, 24 h, 24 h): 0.43% | inhibition at 60 µM (A375 (human malanoma); A-375, 24 h, 24 h): 14.1% | inhibition at 120 µM (A375 (human malanoma); A-375, 24 h, 24 h, 120 μmol/L): 36.7% | inhibition at 240 µM (A375 (human malanoma); A-375, 24 h, 24 h): 44.8% | inhibition at 480 µM (A375 (human malanoma); A-375, 24 h, 24 h): 63.3% | inhibition at 960 µM (A375 (human malanoma); A-375, 24 h, 24 h): 60.4% | inhibition at 7.5 µM (A375 (human malanoma); A-375, 48 h, 48 h): 0.51% | inhibition at 15 µM (A375 (human malanoma); A-375, 48 h, 48 h): 6.29% | inhibition at 30 µM (A375 (human malanoma); A-375, 48 h, 48 h): 17.2% | inhibition at 60 µM (A375 (human malanoma); A-375, 48 h, 48 h): 44.4% | inhibition at 120 µM (A375 (human malanoma); A-375, 48 h, 48 h, 120 μmol/L): 88.6% | inhibition at 240 µM (A375 (human malanoma); A-375, 48 h, 48 h): 100% | inhibition at 480 µM (A375 (human malanoma); A-375, 48 h, 48 h): 96.1% | inhibition at 960 µM (A375 (human malanoma); A-375, 48 h, 48 h): 89.8% | IC50 (A375 (human malanoma); 24 h): 357 µM | IC50 (A375 (human malanoma); 48 h): 61.5 µM | Inhibitory rate (%) ([1]; 24 h): 37.6% | Inhibitory rate (%) ([1]; 48 h): 81.1% | inhibition at 7.5 µM ([1]; L929, 24 h, 24 h): 5.42% | inhibition at 15 µM ([1]; L929, 24 h, 24 h): 10.4% | inhibition at 30 µM ([1]; L929, 24 h, 24 h): 13.2% | inhibition at 60 µM ([1]; L929, 24 h, 24 h): 22.7% | inhibition at 120 µM ([1]; L929, 24 h, 24 h): 37.6% | inhibition at 240 µM ([1]; L929, 24 h, 24 h): 52.3% | inhibition at 480 µM ([1]; L929, 24 h, 24 h): 48.1% | inhibition at 960 µM ([1]; L929, 24 h, 24 h): 38.9% | inhibition at 7.5 µM ([1]; L929, 48 h, 48 h): 17.3% | inhibition at 15 µM ([1]; L929, 48 h, 48 h): 21.6% | inhibition at 30 µM ([1]; L929, 48 h, 48 h): 38.8% | inhibition at 60 µM ([1]; L929, 48 h, 48 h): 66.8% | inhibition at 120 µM ([1]; L929, 48 h, 48 h): 81.1% | inhibition at 240 µM ([1]; L929, 48 h, 48 h): 99.5% | inhibition at 480 µM ([1]; L929, 48 h, 48 h): 98.2% | inhibition at 960 µM ([1]; L929, 48 h, 48 h): 89.9% | IC50 ([1]; 24 h): 665 µM | IC50 ([1]; 48 h): 36.9 µM | Inhibitory rate (%) ([2]; 24 h): 71.6% | Inhibitory rate (%) ([2]; 48 h): 86.0% | inhibition at 7.5 µM ([2]; 24 h, 24 h): 35% | inhibition at 15 µM ([2]; 24 h, 24 h): 34.7% | inhibition at 30 µM ([2]; 24 h, 24 h): 33.3% | inhibition at 60 µM ([2]; 24 h, 24 h): 43.4% | inhibition at 120 µM ([2]; 24 h, 24 h): 71.6% | inhibition at 240 µM ([2]; 24 h, 24 h): 88.2% | inhibition at 480 µM ([2]; 24 h, 24 h): 88.1% | inhibition at 960 µM ([2]; 24 h, 24 h): 73.8% | inhibition at 7.5 µM ([2]; 48 h, 48 h): 20% | inhibition at 15 µM ([2]; 48 h, 48 h): 17.2% | inhibition at 30 µM ([2]; 48 h, 48 h): 24.6% | inhibition at 60 µM ([2]; 48 h, 48 h): 41.4% | inhibition at 120 µM ([2]; 48 h, 48 h): 86% | inhibition at 240 µM ([2]; 48 h, 48 h): 99.5% | inhibition at 480 µM ([2]; 48 h, 48 h): 98% | inhibition at 960 µM ([2]; 48 h, 48 h): 92% | IC50 ([2]; 24 h): 61.2 µM | IC50 ([2]; 48 h): 64.7 µM | inhibition at 7.5 µM ([3]; 24 h): 4.89% | inhibition at 15 µM ([3]; 24 h): 0% | inhibition at 30 µM ([3]; 24 h): 3.04% | inhibition at 60 µM ([3]; 24 h): 45.2% | inhibition at 120 µM ([3]; 24 h): 58.8% | inhibition at 240 µM ([3]; 24 h): 68.5% | inhibition at 480 µM ([3]; 24 h): 74.1% | inhibition at 960 µM ([3]; 24 h): 70.8% | IC50 ([3]; 24 h): 85.1 µM | inhibition at 7.5 µM ([3]; 48 h): 8.6% | inhibition at 15 µM ([3]; 48 h): 0% | inhibition at 30 µM ([3]; 48 h): 7.57% | inhibition at 60 µM ([3]; 48 h): 52.6% | inhibition at 120 µM ([3]; 48 h): 77.3% | inhibition at 240 µM ([3]; 48 h): 95% | inhibition at 480 µM ([3]; 48 h): 92.9% | inhibition at 960 µM ([3]; 48 h): 82.5% | IC50 ([3]; 48 h): 58 µM
